Values quoted from earlier work, collected in patent EP3315966A1, “STANDARD THYROID GLAND HORMONE SOLUTION” (Fujirebio Inc., priority 2015, dated 2017).

Settings: buffer substance of the standard solution

pKa: 10.4
Structure (SMILES): O=S(=O)(O)CCCNC1CCCCC1 [CAPS, N-cyclohexyl-3-aminopropanesulfonic acid]
